Measurements reported in patent US6215002A, “Pyrrolopyrrolone derivatives as inhibitors of neutrophil elastase” (priority 1996, dated 2001).
Where a name gives a salt, the structure may show the parent alone.

What was measured:
[1] = target: T1, human neutrophil elastase (Homo sapiens, UniProt P08246); test: In vitro assay of human neutrophil elastase (HNE); type: biochemical; conditions: 118 nM purified human neutrophil elastase, pH 8.6, 15 min incubation at 30° C., MeO-succinyl-alanyl-alanyl-prolyl-valyl-p-nitroanilide substrate; read-out: HNE IC50
T1 sequence (P08246 30-267): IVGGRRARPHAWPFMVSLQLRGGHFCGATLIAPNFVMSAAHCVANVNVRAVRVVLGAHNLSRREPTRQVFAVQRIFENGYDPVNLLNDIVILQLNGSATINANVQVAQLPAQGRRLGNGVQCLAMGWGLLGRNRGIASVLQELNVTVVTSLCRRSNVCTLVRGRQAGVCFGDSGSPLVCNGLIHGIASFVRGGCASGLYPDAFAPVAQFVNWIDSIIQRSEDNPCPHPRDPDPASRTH
Outline: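 Residual activity was taken as the 10 min rate of absorbance rise at 405 nm after adding 0.6 mM MeO-succinyl-AAPV-p-nitroanilide. Curve fitting of activity against concentration gave IC50.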

Intracellular elastase = test: Oral in vivo model using IL-8 induced lung infiltrates for the assessment of intracellular elastase inhibition (hamster test); conditions: effective dose of less than 40 mg/kg, IL-8 intratracheal
Outline: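 Fasted adult hamsters (n=4) given compound orally in water, with intratracheal 1 ug recombinant human IL-8; sacrificed 6 h later. Neutrophils from lung lavage and femoral bone marrow sonicated, granules disrupted, and elastase measured, with myeloperoxidase used to normalise for neutrophil recovery.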

SMILES	IC50 [1]	duration of effect (Intracellular elastase)
CC(C)NCc1ccc(C(=O)N2CC[C@H]3[C@H]2[C@@H](C(C)C)C(=O)N3S(C)(=O)=O)cc1.Cl (relative stereo) [Example 179, rel-(3R,3aR,6aS)-3-Isopropyl-4-[4-(isopropylamino-methyl)-benzoyl]-1-methanesulfonyl-hexahydro-pyrrolo[3,2-b]pyrrol-2-one hydrochloride]	47 nM	at least 6 hours
CCN(CC)Cc1ccc(C(=O)N2CC[C@H]3[C@H]2[C@@H](C(C)C)C(=O)N3S(C)(=O)=O)cc1.Cl (relative stereo) [Example 182, rel-(3R,3aR,6aS)-4-(4-Diethylaminomethyl-benzoyl)-3-isopropyl-1-methanesulfonyl-hexahydro-pyrrolo[3,2-b]pyrrol-2-one hydrochloride]	43 nM	at least 6 hours
CC(C)[C@H]1C(=O)N(S(C)(=O)=O)[C@H]2CCN(C(=O)c3ccc(CN4CCCCCC4)cc3)[C@H]12 (relative stereo) [Example 178, rel-(3R,3aR,6aS)-4-(4-Azepin-1-ylmethyl-benzoyl)-3-isopropyl-1-methanesulfonyl-hexahydro-pyrrolo[3,2-b]pyrrol-2-one hydrochloride]	68 nM	at least 6 hours
CC(C)[C@H]1C(=O)N(S(C)(=O)=O)[C@H]2CCN(C(=O)/C=C/CN(C(C)C)C(C)C)[C@H]12.Cl (relative stereo) [Example 144, rel-(3R,3aR,6aS)-4-(4-Diisopropylamino-but-2E-enoyl)-3-isopropyl-1-methanesulfonyl-hexahydro-pyrrolo[3,2-b]pyrrol-2-one hydrochloride]	71 nM	at least 6 hours
CC(C)[C@H]1C(=O)N(S(C)(=O)=O)[C@H]2CCN(C(=O)/C=C/CN3C(C)CCCC3C)[C@H]12.Cl (relative stereo) [Example 139, rel-(3R,3aR,6aS)-4-[4-(2,6-Dimethyl-piperidin-1-yl)-but-2E-enoyl]-3-isopropyl-1-methanesulfonyl-hexahydro-pyrrolo[3,2-b]pyrrol-2-one hydrochloride]	55 nM	at least 6 hours
CC(C)[C@H]1C(=O)N(S(C)(=O)=O)[C@H]2CCN(C(=O)c3ccc(CN4CCNCC4)cc3)[C@H]12.Cl.Cl (relative stereo) [Example 188, rel-(3R,3aR,6aS)-3-Isopropyl-1-methanesulfonyl-4-(4-piperazin-1-ylmethyl-benzoyl)-hexahydro-pyrrolo[3,2-b]pyrrol-2-one dihydrochloride]	67 nM	at least 6 hours
CC(C)[C@H]1C(=O)N(S(C)(=O)=O)[C@H]2CCN(C(=O)c3ccc(CN(C)C)o3)[C@H]12.Cl (relative stereo) [Example 251, rel-(3R,3aR,6aS)-4-(5-Dimethylaminomethyl-furan-2-carbonyl)-3-isopropyl-1-methanesulfonyl-hexahydro-pyrrolo[3,2-b]pyrrol-2-one hydrochloride]	43 nM	at least 6 hours
CC(C)[C@H]1C(=O)N(S(C)(=O)=O)[C@H]2CCN(C(=O)c3ccc(CN4C(C)CCCC4C)cc3)[C@H]12.Cl (relative stereo) [Example 200, rel-(3R,3aR,6aS)-4-[4-(2,6-Dimethyl-piperidin-1-ylmethyl)-benzoyl]-3-isopropyl-1-methanesulfonyl-hexahydropyrrolo[3,2-b]pyrrol-2-one hydrochloride]	53 nM	at least 6 hours

Continued, in another order:

IC50 [1]	SMILES	duration of effect (Intracellular elastase)
13 nM	CC(C)[C@H]1C(=O)N(S(C)(=O)=O)[C@H]2CCN(C(=O)c3ccc(CN4CCCCC4)cc3)[C@H]12.Cl (relative stereo) [Example 174, rel-(3R,3aR,6aS)-3-Isopropyl-1-methanesulfonyl-4-(4-piperidin-1-ylmethyl-benzoyl)-hexahydro-pyrrolo[3,2-b]pyrrol-2-one hydrochloride]	at least 6 hours
34 nM	CC(C)[C@H]1C(=O)N(S(C)(=O)=O)[C@H]2CCN(C(=O)/C=C/CN3CCCC3)[C@H]12.Cl (relative stereo) [Example 146, rel-(3R,3aR,6aS)-3-Isopropyl-1-methanesulfonyl-4(4-pyrrolidin-1-yl-but-2E-enoyl)-hexahydro-pyrrolo[3,2-b]pyrrol-2-one hydrochloride]	at least 6 hours
46 nM	CC(C)[C@H]1C(=O)N(S(C)(=O)=O)[C@H]2CCN(C(=O)c3ccc(CN(C(C)C)C(C)C)cc3)[C@H]12 (relative stereo) [Example 201, rel-(3R,3aR,6aS)-4-{4-(Diisopropylamino)-methy]benzoyl}3-isopropyl-1-methanesulfonyl-hexahydro-pyrrolo[3,2-b]pyrrol-2-one hydrochloride]	at least 6 hours
46 nM	CC(C)[C@H]1C(=O)N(S(C)(=O)=O)[C@H]2CCN(C(=O)/C=C/CN3C(C)CCC3C)[C@H]12.Cl (relative stereo) [Example 149, rel-(3R,3aR,6aS)-4-[4-(2,5-Dimethyl-pyrrolidin-1-yl)-but-2E-enoyl]-3-isopropyl-1-methanesulfonyl-hexahydro-pyrrolo[3,2-b]pyrrol-2-one hydrochloride]	at least 6 hours
39 nM	CCN(CC)C/C=C/C(=O)N1CC[C@H]2[C@H]1[C@@H](C(C)C)C(=O)N2S(C)(=O)=O (relative stereo) [Example 145, rel-(3R,3aR,6aS)-4-Diethylamino-but-2E-enoyl)-3-isopropyl-1-methanesulfonyl-hexahydro-pyrrolo[3,2-b]pyrrol-2-one hydrochloride]	at least 6 hours
53 nM	CC(C)[C@H]1C(=O)N(S(C)(=O)=O)[C@H]2CCN(C(=O)c3ccc(CN4C(C)CCC4C)cc3)[C@H]12.Cl (relative stereo) [Example 186, rel-(3R,3aR,6aS)-4-[4-(2,5-Dimethyl-pyrrolidin-1-ylmethyl)-benzoyl]-3-isopropyl-1-methanesulfonyl-hexahydro-pyrrolo[3,2-b]pyrrol-2-one hydrochloride]	at least 6 hours
